Assay results from patent EP2177496A1, “New analogs of polysphorin and uses thereof for treating or preventing malaria” (Assistance Publique - Hôpitaux de Paris, priority 2008, dated 2010).

What was measured:
P. falciparum [1] = test: In vitro activity against erythrocytic stage of P. falciparum ([3H]-hypoxanthine incorporation); type: cell-based, chloroquine-sensitive (3D7w) clone of P. falciparum; details: read-out: IC50 (µM) Erythrocytic stage P. falciparum
Procedure: After 48 hours, [^3H]-hypoxanthine (Amersham) was added to each well and then plates were incubated for 24 hours. Parasites were harvested, and incorporation of radioactivity was determined by liquid scintillation counting (Beckman LS1701, les Ulis, France). The counts-per-minute (cpm) was adjusted relative to controls to obtain percentages of inhibition. […] This estimation was obtained with IC50 estimator software. For the assay, the parasites were synchronized by D-sorbitol treatment.

in vitro = details: human, TC50 (µM) Hepatic stage (rodent) P. yoelii, 50% toxic concentration, MTT assay
Procedure: (§1) A preliminary screening was performed consisting in the infection of human CD81 transfected hepatocarcinome cell line HepG2 (HepG2/CD81) with P. yoelii. IC50 (inhibiting concentration 50), TC50 (toxic concentration 50) and TI (therapeutic index, ratio TC50/IC50) were estimated for each drug tested. Selected molecules (small IC50, high TC50 and high TI) were analyzed in human hepatocytes. Briefly, HepG2 cells were plated in 96-well plates for 24 h prior to inoculation with 1x10^4 of P. yoelii sporozoites. Sporozoites-inoculated culture plates were centrifuged for 5 min at 1,500 rpm at 4°C in order to enhance the infection rate as described by Gruner (Gruner et al., 2005). After 3h at 37°C, the cultures were washed and further incubated in fresh medium for 48 h (P. yoelii) before quantification of infected cells in triplicate wells.
(§2) Toxicity was determined by using the colorimetric 3-(4,5-dimethylthiazol-2-yl)-2,5-diphenyltetrazolium bromide (MTT) assay (Mosman., 1983). Briefly, HepG2 cells cultures were prepared in 96-well plates as described above. Drugs were tested in triplicate wells at eight concentrations ranging from 6.4 × 10^-3 µM to 200 µM. One hundred microliters of 0.5 mg/ml MTT (5 mg/ml MTT in water diluted 10x in William's medium without fetal bovine serum) was added to each well, and the plates were incubated for 4 h (37°C, 5% CO2). The medium was discarded, and the cells were resuspended in ethanol and dimethyl sulfoxide (50/50, vol/vol). The plates were read in an enzyme-linked immunosorbent assay plate reader (550-nm absorbance wavelength and 620-nm reference wavelength). The results were expressed as the percent change in viability compared to drug-free control cultures. […] Each drug and concentration was tested at least in triplicate. The selectivity index (SI) was defined as the ratio of the TC50 to the IC50.

[2] = MTT toxicity assay reported with the erythrocytic stage (TC50), cells not named; type: cell-based; details: 50% toxic concentration, read-out: TC50 (µM) Erythrocytic stage P. falciparum
From the text: The selectivity index (SI) was defined as the ratio of the TC50 to the IC50.

P. yoelii = test: In vitro activity against hepatic stage of P. yoelii (sporozoite-infected HepG2/CD81 cells or rodent hepatocytes, liver-schizont count); type: cell-based, P. yoelii (265 BY strain); details: rodent parasite P. yoelii, cultures arrested at 48 h
Procedure: (§3) Activity against pre-erythrocytic stages was tested by in vitro assays with the human parasite P. falciparum (NF54 strain) and the rodent parasite P. yoelii (265 BY strain). The rodent parasite P. yoelii is produced in the insectarium of the INSERM Unit U511 and human parasite P. falciparum was obtained from collaboration with R. Sauerwein.
(§4) Sporozoites were obtained from infected salivary glands of Anopheles stephensi mosquitoes fed on continuous culture of P. falciparum (coll R. Sauerwein, Netherlands), or on P. yoelii parasitized mice (insectarium of the INSERM Unit U511). After aseptic dissection, salivary glands were homogenized in a glass grinder and diluted in culture medium or sterile phosphate-buffered saline (PBS).
(§5) Primary cultures of rodent or human hepatocytes were prepared from liver segments taken from mouse or from adult patients undergoing partial hepatectomy. Hepatocytes were isolated using the two-step enzymatic perfusion technique (Guguen-Guillouzo et al., 1982) and were further purified on a discontinuous Percoll gradient. Then, hepatocytes were seeded in eight-chamber Lab-Tek permanox slides at a density of 1,4x10^5 cells per cm^2, and maintained under culture conditions as described in Mahmoudi et al., 2003. After complete adherence to culture plates, rodent and human hepatocytes were infected with P. yoelii or P. falciparum sporozoites, respectively, aseptically dissected from mosquitoes' salivary glands, as described above. Hepatocytes were inoculated with 6x10^4 sporozoites per Lab-Tek well. Compounds to be tested were added at the time of infection and/or after penetration of the sporozoites and at different concentrations (three wells per dilution). Every day, medium was replaced by fresh medium containing or not different concentrations of the molecules to be tested. Cultures were arrested at 48 hours (P. yoelii) or 6 days (P. falciparum) and cells were fixed with methanol. Liver-schizonts were quantified by microscopic examination after fluorescent labeling using a primary mouse antibody directed against Plasmodium heat shock protein-70 (Renia et al., 1990) produced in INSERM unit 511 and a secondary goat anti-mouse antibody conjugated with fluorescein isothiocyanate (Sigma Aldrich).

HepG2 cells = test: in vitro; details: read-out: TC50 (µM) Hepatic stage (rodent) P. yoelii; 50% toxic concentration, MTT assay
Procedure: as §1, §2

P. falciparum [3] = test: In vitro activity against hepatic stage of P. falciparum in primary human hepatocytes (liver-schizont count); type: cell-based, P. falciparum (NF54 strain); details: cultures arrested at 6 days
Procedure: as §3, §4
as §5, with “Every day, medium was replaced by fresh medium containing or not different concentrations of the molecules to be tested. Cultures were arrested at 48 hours (P. yoelii) or 6 days (P. falciparum) and cells were fixed with methanol.” left out

[4] = MTT toxicity assay on human hepatocytes (TC50)
Procedure: Cytotoxic effect of the compounds was evaluated on human hepatocytes, obtained as described above. The colorimetric MTT assay was used (Mosman., 1983). Briefly, hepatocyte cultures were prepared in 96-well plates as described above. Drugs were tested in triplicate wells at eight concentrations ranging from 6.4 x 10^-3 µM to 200 µM. One hundred microliters of 0.5 mg/ml MTT (5 mg/ml MTT in water diluted 10x in William's medium without fetal bovine serum) was added to each well, and the plates were incubated for 4 h (37°C, 5% CO2). The medium was discarded, and the cells were resuspended in ethanol and dimethyl sulfoxide (50/50, vol/vol). The plates were read in an enzyme-linked immunosorbent assay plate reader (550-nm absorbance wavelength and 620-nm reference wavelength). The results were expressed as the percent change in viability compared to drug-free control cultures. […] Each drug and concentration was tested at least in triplicate. The selectivity index (SI) was defined as the ratio of the TC50 to the IC50.

[5] = Plasmodium yoelii, Hepatocyte, 48 h
[6] = Plasmodium falciparum, Erythrocyte, 72 h, ring stage parasitized erythrocytes, 3D7w clone, 48 h + 24 h with [3H]-hypoxanthine
[7] = ring stage parasitized erythrocytes, 3D7w clone, 48 h + 24 h with [3H]-hypoxanthine

Structure (SMILES) | CC50 (in vitro) | CC50 [2] | IC50 (P. falciparum [1]; [6]) | IC50 (P. yoelii) | IC50 (P. falciparum [1]; [7]) | CC50 (HepG2 cells) | further results
CCN(CC)CCCC(C)Nc1ccnc2cc(Cl)ccc12 (centres unmarked) [Chloroquine, reference compound] | – | – | – | – | – | – | IC50 (P. falciparum [1]; Plasmodium falciparum, Erythrocyte, 72 h): 0.04 µM
COc1cc(NC(C)CCCN)c2ncccc2c1 (centres unmarked) [Primaquine, reference compound] | 12.6 µM | – | – | – | – | – | –
COc1cccc(OC)c1OC(C)C(O)c1ccc2c(c1)OC(F)(F)O2 (centres unmarked) [drawing 70] | 54.9 µM | 55 µM | > 40 µM | – | – | – | IC50 (P. yoelii; [5]): 20.1 µM
COc1cccc(OC)c1OC(C)C(O)c1ccc2c(c1)OC(F)(F)O2 (centres unmarked) [drawing 71] | – | 53 µM | – | 20.2 µM | > 40 µM | – | –
COc1cc(C)cc(OC)c1OC(C)C(O)c1ccc2c(c1)OC(F)(F)O2 (centres unmarked) [drawing 72] | 56.8 µM | 57 µM | 13.6 µM | 19 µM | – | – | –
COc1cc(C)cc(OC)c1OC(C)C(O)c1ccc2c(c1)OC(F)(F)O2 (centres unmarked) [drawing 73] | – | 53.7 µM | – | 5.62 µM | 13.5 µM | 53.7 µM | –
COc1cc(C(O)C(C)Oc2c(OC)cccc2OC)cc(OC)c1OC (centres unmarked) [drawing 74] | – | 58 µM | > 40 µM | 28.6 µM | – | 57.9 µM | –
COc1cc(C(O)C(C)Oc2c(OC)cccc2OC)cc(OC)c1OC (centres unmarked) [drawing 75] | – | – | – | 2.52 µM | – | 0.126 µM | –
COc1cc(C(O)C(C)Oc2c(OC)cc(C)cc2OC)cc(OC)c1OC (centres unmarked) [drawing 76] | 47 µM | 47 µM | > 40 µM | 50.1 µM | – | – | –
COc1cc(C(O)C(C)Oc2c(OC)cc(C)cc2OC)cc(OC)c1OC (centres unmarked) [drawing 77] | – | 49.5 µM | – | 0.0045 ± 0.005 µM | > 40 µM | 49.5 µM | IC50 (P. falciparum [3]; Plasmodium falciparum, Hepatocyte, 144 h): 0.38 µM; CC50 [4]: 125 µM
COc1cc(C(O)C(C)Oc2c(OC)cc(-c3ccccc3)cc2OC)cc(OC)c1OC (centres unmarked) [drawing 78] | > 50 µM | 50 µM | 11.5 µM | – | – | – | IC50 (P. yoelii; [5]): 3.54 ± 4.9 µM; IC50 (P. falciparum [3]): 0.02 µM; CC50 [4]: 50 µM
COc1cc(C(O)C(C)Oc2c(OC)cc(-c3ccccc3)cc2OC)cc(OC)c1OC (centres unmarked) [drawing 79] | – | 50 µM | – | 3.61 ± 4 µM | 20 µM | > 50 µM | IC50 (P. falciparum [3]): 0.007 µM
